Laboratory results reported in patent US20100173959A1, “METHOD OF PROTECTING A PLANT PROPAGATION MATERIAL, A PLANT, AND/OR PLANT ORGANS” (SYNGENTA CROP PROTECTION, INC., priority 2007, published 2010).

Columns and labels:
Myzus persicae [1] = assay: B1: Myzus persicae (Green Peach Aphid), mixed population, sachet test; format: in vivo; conditions: 144 h, 12.5 ppm in 30% sucrose solution, 6 days after infestation, read-out: control of Myzus persicae (mortality, feeding activity)
Method: B1: Myzus persicae (Green Peach Aphid) (Mixed Population, Sachet Test)
Each well of a 24-well microtiter plate is filled with 0.6 ml 30% sucrose solution, containing 12.5 ppm of the test compounds. For producing the sachets, the wells are covered with stretched parafilm and infested with a mixed population of Myzus persicae. 6 days after the infestation, samples are checked for mortality (feeding activity).

[2] = test system: cabbage aphid (Myzus persicae); assay: Example 2: Chinese cabbage seed treatment, reduction of cabbage aphid; format: in vivo; conditions: infested 14 days after sowing, counted 7 days after infestation
Method: Chinese cabbage seeds are treated with P1.1, P1.5, P1.6, P1.8, P1.32 or P1.38 at rates of 0.3 and 0.6 mg a.i./seed. The seeds are sown into 9-cm pots filled with 280 mL of soil. After placing the seeds on the soil surface they are covered with 50 mL of soil. Before and during the bioassays, the plants are grown in greenhouse chambers at 25° C. during daytime, 23° C. during night, 50-60% rH, a 14-hour photoperiod and artificial lighting when natural light fell below 20 kLux. After sowing, the pots are transferred to the greenhouse chambers, set up in a random fashion and are irrigated as necessary from above. After 14 days, the plants are infested with cabbage aphid (Myzus persicae) by placing one infested pea seedling containing approximately 150 aphids of a population of mixed developmental stages onto each plant. Seven days after infestation, the number of aphids is counted per plant. Each treatment group is replicated 10 times. Each replicate contains 1 plant.

[3] = test system: African bean aphid (Aphis craccivora); assay: Example 1: sugarbeet seed treatment, reduction of African bean aphid; format: in vivo; conditions: infested 14 days after sowing, counted 7 days after infestation
Method: Sugarbeet seeds are treated with P1.1, P1.5, P1.6, P1.8, P1.32 or P1.38 at rates of 0.1, 0.3 and 0.6 mg a.i./seed. The seeds are sown into 9-cm pots filled with 280 mL of soil. After placing the seeds on the soil surface they are covered with 50 mL of soil. Before and during the bioassays, the plants are grown in greenhouse chambers at 25° C. during daytime, 23° C. during night, 50-60% rH, a 14-hour photoperiod and artificial lighting when natural light fell below 20 kLux. After sowing, the pots are transferred to the greenhouse chambers, set up in a random fashion and are irrigated as necessary from above. After 14 days, the plants are infested with African bean aphid (Aphis craccivora) by placing one infested pea seedling containing approximately 150 aphids of a population of mixed developmental stages onto each plant. Seven days after infestation, the number of aphids is counted per plant. Each treatment group is replicated 10 times. Each replicate contains 1 plant.

Myzus persicae [4] = assay: B2: Myzus persicae (Green Peach Aphid), mixed population, systemic/feeding activity, curative; format: in vivo; conditions: 144 h, roots of infested pea seedlings in test solution of 6 ppm, 6 days after introduction, read-out: control of Myzus persicae (mortality)
Excerpt: B2: Myzus persicae (Green Peach Aphid) (Mixed Population, Systemic/Feeding Activity, Curative)
Roots of pea seedlings, infested with an aphid population of mixed ages, are placed directly in the test solutions of 6 ppm. 6 days after introduction, samples are checked for mortality and special effects on the plant.

Row | melting point | SMILES | mortality at 12.5 ppm (Myzus persicae [1]) | Efficacy, % (reduction of aphids compared to untreated control plants) ([2]; 0.3 mg/seed) | Efficacy, % (reduction of aphids compared to untreated control plants) ([2]; 0.6 mg/seed) | Efficacy, % (reduction of aphids compared to untreated control plants) ([3]; 0.1 mg/seed) | Efficacy, % (reduction of aphids compared to untreated control plants) ([3]; 0.3 mg/seed) | Efficacy, % (reduction of aphids compared to untreated control plants) ([3]; 0.6 mg/seed) | mortality at 6 ppm (Myzus persicae [4])
1 | – | COc1cccc2c1C(N)=NS2(=O)=O [P1.1, 3-Amino-4-methoxybenzo[d]isothiazole-1,1-dioxide] | 100% | 10% | 45% | 41% | 69% | 92% | 100%
2 | 242 to 245 °C | COc1cccc2c1C(NC(C)=O)=NS2(=O)=O [P1.8, 3-Acetylamino-4-methoxybenzo[d]isothiazole-1,1-dioxide] | – | 0% | 28% | 8% | 72% | 95% | –
3 | – | NC1=NS(=O)(=O)c2cccc(Cl)c21 [P1.5, 3-Amino-4-chlorobenzo[d]isothiazole-1,1-dioxide] | 100% | 11% | 64% | 87% | – | – | 100%
